# Read-outs that look alike come from different tables or passages of the source.
# Assay: Study .1: single dose study in healthy volunteers, pharmacokinetic parameters
# Assay type: in vivo, human
# Details: Study .1, fasted
# Procedure: 5. Pharmacokinetic Parameters
# The pharmacokinetic parameters of pharmaceutical compositions and pharmaceutical dosage forms are assessed in healthy volunteer and patient populations. In the studies shown below, the participants fasted on the day of sampling, unless as otherwise stated (see for example study .3). The active substance in the studies below is the compound (I.9), preferably in the crystalline form (I.9X), and the dose of active ingredient is indicated in mg.
# For the quantification of plasma concentrations of the active ingredient, 2.7 mL of blood was collected and transferred into an EDTA (ethylendiaminetetraacetic acid)-anticoagulant blood drawing tube. The EDTA-anticoagulated blood samples were centrifuged immediately after collection. Centrifugation lasted for about 10 minutes (at about 2,000×gf to 4,000×gf) at 4-8° C. or within 30 minutes while stored on ice. Concentrations of active substance in EDTA human plasma samples were quantitated using a HPLC/MS/MS method. The assay method comprised a solid phase supported liquid-liquid extraction of human plasma coupled with HPLC/MS/MS determination of the extracted samples. The HPLC/MS/MS assay was validated for the range of 1.11 to 1110 nM in human plasma.
# Study .1: Single dose study in a healthy volunteer population of N=72. Healthy volunteers were administered tablets as described in Example 10 (section Examples of formulations).
# AUC0-inf:area under the concentration-time curve of the analyte in plasma over the time interval from 0 extrapolated to infinity.
# Cmax: maximum concentration of the analyte in plasma.
# Tmax: time from dosing to maximum concentration.
compound,measurement,setting,value
"OC[C@H]1O[C@@H](c2ccc(Cl)c(Cc3ccc(O[C@H]4CCOC4)cc3)c2)[C@H](O)[C@@H](O)[C@@H]1O [Compound (I.9), 1-chloro-4-(β-D-glucopyranos-1-yl)-2-[4-((S)-tetrahydrofuran-3-yloxy)-benzyl]-benzene]",AUC0-inf Max,2.5 mg single dose,0.448 µM·h
same,AUC0-inf Min,2.5 mg single dose,0.336 µM·h
same,"AUC0-inf,norm Max",2.5 mg single dose,179 nmol·h/L/mg
same,"AUC0-inf,norm Median",2.5 mg single dose,159 nmol·h/L/mg
same,"AUC0-inf,norm Min",2.5 mg single dose,134 nmol·h/L/mg
same,"AUC0-inf,norm gMean",2.5 mg single dose,158 nmol·h/L/mg
same,"Cmax,norm Max",2.5 mg single dose,24 nmol/L/mg
same,"Cmax,norm Median",2.5 mg single dose,22 nmol/L/mg
same,"Cmax,norm Min",2.5 mg single dose,17 nmol/L/mg
same,"Cmax,norm gMean",2.5 mg single dose,21 nmol/L/mg
same,tmax Max,2.5 mg single dose,2.98 h
same,tmax Min,2.5 mg single dose,0.983 h
same,Cmax,"2.5 mg single dose, read-out: Cmax Max",60.8 nM
same,Cmax,"2.5 mg single dose, read-out: Cmax Min",42.8 nM
same,AUC0-inf Max,10 mg single dose,2.18 µM·h
same,AUC0-inf Min,10 mg single dose,1.17 µM·h
same,"AUC0-inf,norm Max",10 mg single dose,218 nmol·h/L/mg
same,"AUC0-inf,norm Median",10 mg single dose,178 nmol·h/L/mg
same,"AUC0-inf,norm Min",10 mg single dose,117 nmol·h/L/mg
same,"AUC0-inf,norm gMean",10 mg single dose,169 nmol·h/L/mg
same,"Cmax,norm Max",10 mg single dose,27 nmol/L/mg
same,"Cmax,norm Median",10 mg single dose,24 nmol/L/mg
same,"Cmax,norm Min",10 mg single dose,14 nmol/L/mg
same,"Cmax,norm gMean",10 mg single dose,22 nmol/L/mg
same,tmax Max,10 mg single dose,2.03 h
same,tmax Min,10 mg single dose,0.983 h
same,Cmax,"10 mg single dose, read-out: Cmax Max",268 nM
same,Cmax,"10 mg single dose, read-out: Cmax Min",143 nM
same,AUC0-inf Max,25 mg single dose,4.91 µM·h
same,AUC0-inf Min,25 mg single dose,2.66 µM·h
same,"AUC0-inf,norm Max",25 mg single dose,196 nmol·h/L/mg
same,"AUC0-inf,norm Median",25 mg single dose,159 nmol·h/L/mg
same,"AUC0-inf,norm Min",25 mg single dose,106 nmol·h/L/mg
same,"AUC0-inf,norm gMean",25 mg single dose,150 nmol·h/L/mg
same,"Cmax,norm Max",25 mg single dose,27 nmol/L/mg
same,"Cmax,norm Median",25 mg single dose,21 nmol/L/mg
same,"Cmax,norm Min",25 mg single dose,13 nmol/L/mg
same,"Cmax,norm gMean",25 mg single dose,20 nmol/L/mg
same,tmax Max,25 mg single dose,3.02 h
same,tmax Min,25 mg single dose,1.00 h
same,Cmax,"25 mg single dose, read-out: Cmax Max",678 nM
same,Cmax,"25 mg single dose, read-out: Cmax Min",334 nM
same,AUC0-inf Max,50 mg single dose,11.5 µM·h
same,AUC0-inf Min,50 mg single dose,7.27 µM·h
same,"AUC0-inf,norm Max",50 mg single dose,230 nmol·h/L/mg
same,"AUC0-inf,norm Median",50 mg single dose,166 nmol·h/L/mg
same,"AUC0-inf,norm Min",50 mg single dose,145 nmol·h/L/mg
same,"AUC0-inf,norm gMean",50 mg single dose,169 nmol·h/L/mg
same,"Cmax,norm Max",50 mg single dose,29 nmol/L/mg
same,"Cmax,norm Median",50 mg single dose,22 nmol/L/mg
same,"Cmax,norm Min",50 mg single dose,14 nmol/L/mg
same,"Cmax,norm gMean",50 mg single dose,22 nmol/L/mg
same,tmax Max,50 mg single dose,3.00 h
same,tmax Min,50 mg single dose,0.750 h
same,Cmax,"50 mg single dose, read-out: Cmax Max",1450 nM
same,AUC(0-inf),"human, plasma, oral, 2.5 mg, 2.5 mg single dose, read-out: AUC0-inf Mean",0.396 µM·h
same,AUC(0-inf),"human, plasma, oral, 2.5 mg, 2.5 mg single dose, read-out: AUC0-inf Median",0.398 µM·h
same,AUC(0-inf),"human, plasma, oral, 2.5 mg, 2.5 mg single dose, read-out: AUC0-inf gMean",0.394 µM·h
same,Cmax,"human, plasma, oral, 2.5 mg, 2.5 mg single dose, read-out: Cmax Mean",53.2 nM
same,Cmax,"human, plasma, oral, 2.5 mg, 2.5 mg single dose, read-out: Cmax Median",55 nM
same,Cmax,"human, plasma, oral, 2.5 mg, 2.5 mg single dose, read-out: Cmax gMean",52.9 nM
same,Tmax,"human, plasma, oral, 2.5 mg, 2.5 mg single dose, read-out: tmax Mean",1.83 h
same,Tmax,"human, plasma, oral, 2.5 mg, 2.5 mg single dose, read-out: tmax Median",1.75 h
same,Tmax,"human, plasma, oral, 2.5 mg, 2.5 mg single dose, read-out: tmax gMean",1.72 h
same,AUC(0-inf),"human, plasma, oral, 10 mg, 10 mg single dose, read-out: AUC0-inf Mean",1.73 µM·h
same,AUC(0-inf),"human, plasma, oral, 10 mg, 10 mg single dose, read-out: AUC0-inf Median",1.78 µM·h
same,AUC(0-inf),"human, plasma, oral, 10 mg, 10 mg single dose, read-out: AUC0-inf gMean",1.69 µM·h
same,Cmax,"human, plasma, oral, 10 mg, 10 mg single dose, read-out: Cmax Mean",226 nM
same,Cmax,"human, plasma, oral, 10 mg, 10 mg single dose, read-out: Cmax Median",239 nM
same,Cmax,"human, plasma, oral, 10 mg, 10 mg single dose, read-out: Cmax gMean",221 nM
same,Tmax,"human, plasma, oral, 10 mg, 10 mg single dose, read-out: tmax Mean",1.42 h
same,Tmax,"human, plasma, oral, 10 mg, 10 mg single dose, read-out: tmax Median",1.5 h
same,Tmax,"human, plasma, oral, 10 mg, 10 mg single dose, read-out: tmax gMean",1.38 h
same,AUC(0-inf),"human, plasma, oral, 25 mg, 25 mg single dose, read-out: AUC0-inf Mean",3.83 µM·h
same,AUC(0-inf),"human, plasma, oral, 25 mg, 25 mg single dose, read-out: AUC0-inf Median",3.98 µM·h
same,AUC(0-inf),"human, plasma, oral, 25 mg, 25 mg single dose, read-out: AUC0-inf gMean",3.75 µM·h
same,Cmax,"human, plasma, oral, 25 mg, 25 mg single dose, read-out: Cmax Mean",505 nM
same,Cmax,"human, plasma, oral, 25 mg, 25 mg single dose, read-out: Cmax Median",520 nM
same,Cmax,"human, plasma, oral, 25 mg, 25 mg single dose, read-out: Cmax gMean",490 nM
same,Tmax,"human, plasma, oral, 25 mg, 25 mg single dose, read-out: tmax Mean",2.19 h
same,Tmax,"human, plasma, oral, 25 mg, 25 mg single dose, read-out: tmax Median",2.05 h
same,Tmax,"human, plasma, oral, 25 mg, 25 mg single dose, read-out: tmax gMean",2.06 h
same,AUC(0-inf),"human, plasma, oral, 50 mg, 50 mg single dose, read-out: AUC0-inf Mean",8.58 µM·h
same,AUC(0-inf),"human, plasma, oral, 50 mg, 50 mg single dose, read-out: AUC0-inf Median",8.29 µM·h
same,AUC(0-inf),"human, plasma, oral, 50 mg, 50 mg single dose, read-out: AUC0-inf gMean",8.46 µM·h
same,Cmax,"human, plasma, oral, 50 mg, 50 mg single dose, read-out: Cmax Mean",1110 nM
same,Cmax,"human, plasma, oral, 50 mg, 50 mg single dose, read-out: Cmax Median",1100 nM
same,Cmax,"human, plasma, oral, 50 mg, 50 mg single dose, read-out: Cmax gMean",1080 nM
same,Tmax,"human, plasma, oral, 50 mg, 50 mg single dose, read-out: tmax Mean",1.75 h
same,Tmax,"human, plasma, oral, 50 mg, 50 mg single dose, read-out: tmax Median",1.5 h
same,Tmax,"human, plasma, oral, 50 mg, 50 mg single dose, read-out: tmax gMean",1.59 h

# Source: patent US20180289678A1, “PHARMACEUTICAL COMPOSITION, PHARMACEUTICAL DOSAGE FORM, PROCESS FOR THEIR PREPARATION, METHODS FOR TREATING AND USES THEREOF” (Boehringer Ingelheim International GmbH, priority 2009, published 2018)
